Publication PMC6704710, “Preclinical evaluation of 3D185, a novel potent inhibitor of FGFR1/2/3 and CSF-1R, in FGFR-dependent and macrophage-dominant cancer models” (Journal of Experimental & Clinical Cancer Research : CR, 2019)

Key:
FGFR1 = biological target: T1, FGFR1 (Homo sapiens, UniProt P11362); assay: Kinase inhibition assay (ELISA); assay type: biochemical
T1 construct: purchased Eurofins (Fremont, United States)
Procedure: (§1) Active FGFR1–4, VEGFR1, KDR, VEGFR3, PDGFRα and PDGFRβ proteins were purchased from Eurofins (Fremont, United States), and kinase activity was assessed using ELISA, as previously reported. […]. Increasing concentrations of ATP were diluted for the kinase reaction in the ATP competition assay. CSF-1R kinase activity was analyzed using the Z’-LYTE™ Kinase Assay Kit (Thermo Fisher, United States). The assay formats are described in the SelectScreen Kinase Profiling Service Zlyte protocol. IC50 values were calculated by dose-response curve fitting using Prism (Graph Pad).

PDGFRα = biological target: T2, PDGFRα (Homo sapiens, UniProt P16234); assay: Kinase inhibition assay (ELISA); assay type: biochemical
T2 construct: purchased Eurofins (Fremont, United States)
Procedure: as §1

PDGFRβ = biological target: T3, PDGFRβ (Homo sapiens, UniProt P09619); assay: Kinase inhibition assay (ELISA); assay type: biochemical
T3 construct: purchased Eurofins (Fremont, United States)
Procedure: as §1

VEGFR1 = biological target: T4, VEGFR1 (Homo sapiens, UniProt P17948); assay: Kinase inhibition assay (ELISA); assay type: biochemical
T4 construct: purchased Eurofins (Fremont, United States)
Procedure: as §1

VEGFR3 = biological target: T5, VEGFR3 (Homo sapiens, UniProt P35916); assay: Kinase inhibition assay (ELISA); assay type: biochemical
T5 construct: purchased Eurofins (Fremont, United States)
Procedure: as §1

FGFR3 = biological target: T6, FGFR3 (Homo sapiens, UniProt P22607); assay: Kinase inhibition assay (ELISA); assay type: biochemical; conditions: mean ± SD
T6 construct: purchased Eurofins (Fremont, United States)

BTK(R28H)(h) = biological target: T7, BTK(R28H)(h) (Homo sapiens, UniProt Q06187, R28H); assay: Eurofins kinase panel; assay type: biochemical; conditions: read-out: Inhibition rate (%)
T7 construct: purchased Eurofins (KinaseProfiler)
T7 sequence (Q06187 whole entry R28H): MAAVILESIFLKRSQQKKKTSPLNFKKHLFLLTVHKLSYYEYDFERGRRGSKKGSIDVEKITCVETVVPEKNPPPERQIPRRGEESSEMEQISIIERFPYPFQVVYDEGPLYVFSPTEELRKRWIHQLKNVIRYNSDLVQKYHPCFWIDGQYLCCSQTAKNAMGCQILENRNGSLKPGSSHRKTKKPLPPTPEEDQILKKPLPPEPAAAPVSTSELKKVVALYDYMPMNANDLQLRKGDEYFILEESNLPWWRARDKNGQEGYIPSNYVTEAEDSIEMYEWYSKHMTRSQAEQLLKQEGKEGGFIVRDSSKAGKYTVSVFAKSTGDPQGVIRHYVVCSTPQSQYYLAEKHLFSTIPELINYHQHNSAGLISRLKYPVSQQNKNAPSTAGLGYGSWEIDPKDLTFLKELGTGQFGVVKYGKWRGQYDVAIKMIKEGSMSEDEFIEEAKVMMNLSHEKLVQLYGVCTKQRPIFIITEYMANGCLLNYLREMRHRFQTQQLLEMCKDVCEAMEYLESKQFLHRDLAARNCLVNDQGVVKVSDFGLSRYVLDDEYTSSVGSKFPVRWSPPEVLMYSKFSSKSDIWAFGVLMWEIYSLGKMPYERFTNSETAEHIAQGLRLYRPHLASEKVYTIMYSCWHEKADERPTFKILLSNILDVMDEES

IRR(h) = biological target: T8, IRR(h) (Homo sapiens, UniProt P14616); assay: Eurofins kinase panel; assay type: biochemical; conditions: read-out: Inhibition rate (%)
T8 construct: purchased Eurofins (KinaseProfiler)

Mnk2(h) = biological target: T9, Mnk2(h) (Homo sapiens, UniProt Q9HBH9); assay: Eurofins kinase panel; assay type: biochemical; conditions: read-out: Inhibition rate (%)
T9 construct: purchased Eurofins (KinaseProfiler)
T9 sequence (Q9HBH9 whole entry): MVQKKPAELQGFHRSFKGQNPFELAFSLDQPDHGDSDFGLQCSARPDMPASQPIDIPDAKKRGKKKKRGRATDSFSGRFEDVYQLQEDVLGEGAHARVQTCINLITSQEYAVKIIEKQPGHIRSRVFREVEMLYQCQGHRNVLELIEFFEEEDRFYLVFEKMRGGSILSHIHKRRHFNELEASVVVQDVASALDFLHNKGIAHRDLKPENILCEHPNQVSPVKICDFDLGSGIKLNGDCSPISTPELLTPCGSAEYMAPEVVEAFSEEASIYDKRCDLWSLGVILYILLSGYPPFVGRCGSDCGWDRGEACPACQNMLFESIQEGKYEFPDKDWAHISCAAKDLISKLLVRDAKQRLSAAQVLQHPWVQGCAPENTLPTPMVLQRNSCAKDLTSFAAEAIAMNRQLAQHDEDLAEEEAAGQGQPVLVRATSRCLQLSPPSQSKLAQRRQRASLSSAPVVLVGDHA

PAK1(h) = biological target: T10, PAK1(h) (Homo sapiens, UniProt Q13153); assay: Eurofins kinase panel; assay type: biochemical; conditions: read-out: Inhibition rate (%)
T10 construct: purchased Eurofins (KinaseProfiler)
T10 sequence (Q13153 whole entry): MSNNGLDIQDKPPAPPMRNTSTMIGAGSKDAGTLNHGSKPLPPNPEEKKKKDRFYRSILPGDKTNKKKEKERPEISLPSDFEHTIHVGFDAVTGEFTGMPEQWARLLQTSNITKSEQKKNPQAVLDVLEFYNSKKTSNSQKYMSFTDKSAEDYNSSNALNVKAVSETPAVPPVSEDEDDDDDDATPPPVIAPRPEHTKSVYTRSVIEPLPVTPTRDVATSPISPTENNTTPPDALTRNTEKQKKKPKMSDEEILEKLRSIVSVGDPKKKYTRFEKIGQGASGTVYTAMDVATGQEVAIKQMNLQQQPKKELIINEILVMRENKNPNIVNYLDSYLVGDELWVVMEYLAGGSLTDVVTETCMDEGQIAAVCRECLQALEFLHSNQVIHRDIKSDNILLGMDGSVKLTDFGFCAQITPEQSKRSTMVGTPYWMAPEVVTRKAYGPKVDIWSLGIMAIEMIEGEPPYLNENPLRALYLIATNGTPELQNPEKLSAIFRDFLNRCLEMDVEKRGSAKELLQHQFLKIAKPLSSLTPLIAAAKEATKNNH

PDHK4(h) = biological target: T11, PDHK4(h) (Homo sapiens, UniProt Q16654); assay: Eurofins kinase panel; assay type: biochemical; conditions: read-out: Inhibition rate (%)
T11 construct: purchased Eurofins (KinaseProfiler)
T11 sequence (Q16654 whole entry): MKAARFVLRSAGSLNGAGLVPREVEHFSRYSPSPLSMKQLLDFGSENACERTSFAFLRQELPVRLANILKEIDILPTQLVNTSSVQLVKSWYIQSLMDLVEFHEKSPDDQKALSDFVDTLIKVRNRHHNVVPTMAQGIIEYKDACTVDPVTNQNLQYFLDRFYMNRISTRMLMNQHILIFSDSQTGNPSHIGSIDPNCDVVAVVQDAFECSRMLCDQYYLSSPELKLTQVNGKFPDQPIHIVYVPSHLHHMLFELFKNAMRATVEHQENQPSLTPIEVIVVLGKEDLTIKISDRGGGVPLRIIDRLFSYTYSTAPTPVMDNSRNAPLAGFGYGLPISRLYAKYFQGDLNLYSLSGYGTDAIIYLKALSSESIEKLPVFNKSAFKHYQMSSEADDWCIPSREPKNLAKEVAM

PKCι(h) = biological target: T12, PKCι(h) (Homo sapiens, UniProt P41743); assay: Eurofins kinase panel; assay type: biochemical; conditions: read-out: Inhibition rate (%)
T12 construct: purchased Eurofins (KinaseProfiler)
T12 sequence (P41743 1-596): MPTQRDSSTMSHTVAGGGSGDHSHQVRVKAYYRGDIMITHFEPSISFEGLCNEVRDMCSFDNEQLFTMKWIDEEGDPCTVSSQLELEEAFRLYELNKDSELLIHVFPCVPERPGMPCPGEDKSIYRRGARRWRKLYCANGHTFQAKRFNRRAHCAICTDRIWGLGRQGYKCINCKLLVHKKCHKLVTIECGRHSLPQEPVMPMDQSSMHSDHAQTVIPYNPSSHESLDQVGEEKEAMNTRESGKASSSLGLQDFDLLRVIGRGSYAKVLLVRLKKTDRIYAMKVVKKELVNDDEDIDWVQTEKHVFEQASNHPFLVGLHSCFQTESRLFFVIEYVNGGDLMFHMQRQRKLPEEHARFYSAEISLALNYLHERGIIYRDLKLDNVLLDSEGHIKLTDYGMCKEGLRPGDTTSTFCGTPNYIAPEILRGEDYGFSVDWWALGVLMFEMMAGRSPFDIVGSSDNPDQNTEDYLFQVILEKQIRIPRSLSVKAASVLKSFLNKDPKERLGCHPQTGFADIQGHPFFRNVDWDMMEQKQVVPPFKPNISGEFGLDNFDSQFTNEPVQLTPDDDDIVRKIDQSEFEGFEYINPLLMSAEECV

SIK2(h) = biological target: T13, SIK2(h) (Homo sapiens, UniProt Q9H0K1); assay: Eurofins kinase panel; assay type: biochemical; conditions: read-out: Inhibition rate (%)
T13 construct: purchased Eurofins (KinaseProfiler)
T13 sequence (Q9H0K1 whole entry): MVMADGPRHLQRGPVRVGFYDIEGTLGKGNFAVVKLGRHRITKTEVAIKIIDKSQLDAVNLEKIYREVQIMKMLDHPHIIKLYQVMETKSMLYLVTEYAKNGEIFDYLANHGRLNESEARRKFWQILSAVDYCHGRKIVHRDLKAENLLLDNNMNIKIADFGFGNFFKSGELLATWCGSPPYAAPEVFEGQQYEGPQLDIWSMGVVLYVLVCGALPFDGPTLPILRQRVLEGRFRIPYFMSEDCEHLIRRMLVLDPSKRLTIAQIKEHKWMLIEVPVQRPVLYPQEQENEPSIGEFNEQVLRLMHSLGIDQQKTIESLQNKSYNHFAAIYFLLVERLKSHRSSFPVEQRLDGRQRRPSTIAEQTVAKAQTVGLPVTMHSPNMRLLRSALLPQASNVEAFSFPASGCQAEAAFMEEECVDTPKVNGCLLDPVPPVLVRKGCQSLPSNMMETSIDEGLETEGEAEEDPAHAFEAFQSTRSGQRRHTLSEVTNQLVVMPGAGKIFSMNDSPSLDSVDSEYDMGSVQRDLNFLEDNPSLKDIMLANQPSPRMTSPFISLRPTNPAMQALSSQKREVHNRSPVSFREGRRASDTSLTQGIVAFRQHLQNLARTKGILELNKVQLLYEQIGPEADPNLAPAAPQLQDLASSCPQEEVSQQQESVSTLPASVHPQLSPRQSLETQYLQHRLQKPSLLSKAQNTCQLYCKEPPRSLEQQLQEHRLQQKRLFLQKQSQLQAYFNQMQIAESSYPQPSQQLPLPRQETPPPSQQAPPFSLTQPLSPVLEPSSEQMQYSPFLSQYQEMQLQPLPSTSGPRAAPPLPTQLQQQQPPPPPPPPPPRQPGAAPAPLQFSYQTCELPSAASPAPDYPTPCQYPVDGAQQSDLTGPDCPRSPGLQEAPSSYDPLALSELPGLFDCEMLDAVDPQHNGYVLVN

STK25(h) = biological target: T14, STK25(h) (Homo sapiens, UniProt O00506); assay: Eurofins kinase panel; assay type: biochemical; conditions: read-out: Inhibition rate (%)
T14 construct: purchased Eurofins (KinaseProfiler)
T14 sequence (O00506 whole entry): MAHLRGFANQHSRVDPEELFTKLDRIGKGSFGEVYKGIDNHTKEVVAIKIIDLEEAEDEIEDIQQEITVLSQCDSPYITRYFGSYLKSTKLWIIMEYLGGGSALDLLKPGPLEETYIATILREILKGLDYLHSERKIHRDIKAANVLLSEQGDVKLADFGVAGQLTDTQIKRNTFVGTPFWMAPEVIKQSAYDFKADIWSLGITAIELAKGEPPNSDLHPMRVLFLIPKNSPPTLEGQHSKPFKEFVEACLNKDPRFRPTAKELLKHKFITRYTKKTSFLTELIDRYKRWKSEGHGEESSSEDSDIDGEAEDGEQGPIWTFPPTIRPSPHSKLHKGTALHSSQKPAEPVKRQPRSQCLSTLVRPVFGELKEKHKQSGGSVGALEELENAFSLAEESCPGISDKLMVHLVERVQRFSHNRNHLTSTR

STK32B(h) = biological target: T15, STK32B(h) (Homo sapiens, UniProt Q9NY57); assay: Eurofins kinase panel; assay type: biochemical; conditions: read-out: Inhibition rate (%)
T15 construct: purchased Eurofins (KinaseProfiler)
T15 sequence (Q9NY57 whole entry): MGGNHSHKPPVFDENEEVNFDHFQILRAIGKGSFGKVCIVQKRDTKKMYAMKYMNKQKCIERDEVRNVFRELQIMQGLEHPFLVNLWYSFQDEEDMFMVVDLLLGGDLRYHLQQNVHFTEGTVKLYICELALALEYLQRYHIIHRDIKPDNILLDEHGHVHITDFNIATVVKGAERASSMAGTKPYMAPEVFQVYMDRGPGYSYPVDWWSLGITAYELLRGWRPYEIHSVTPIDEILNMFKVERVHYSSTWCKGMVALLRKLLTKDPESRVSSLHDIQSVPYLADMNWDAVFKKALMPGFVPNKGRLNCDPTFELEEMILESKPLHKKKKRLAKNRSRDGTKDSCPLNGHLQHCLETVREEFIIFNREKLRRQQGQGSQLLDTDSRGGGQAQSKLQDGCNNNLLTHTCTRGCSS

VEGFR2 (KDR) = biological target: T16, VEGFR2 (KDR) (Homo sapiens, UniProt P35968); assay: Kinase inhibition assay (ELISA); assay type: biochemical
T16 construct: purchased Eurofins (Fremont, United States)

[1] = system: 20 additional tumor cell lines with low expression or activation of FGFR and CSF-1R; assay: Cell proliferation assay, non-dependent panel; assay type: cell-based; conditions: 20 cell lines
Procedure: (§2) The cancer cell lines indicated in Figure 3 were seeded in 96-well plates at a low density in growth medium. The next day, appropriate controls or the designated concentrations of the compounds were added to each well, and the cells were incubated for 72 h. HUVECs (passage 3) were seeded in 96-well plates in growth medium overnight and transferred to serum-free medium for 24 h. The following day, appropriate controls or the designated concentrations of the compounds were added to each well, and 100 ng/mL growth factor (bFGF or VEGF) was added to the indicated wells. The cells were incubated for 48 h. Finally, cell proliferation was determined using a sulforhodamine B (SRB) assay or a cell counting kit-8 (CCK-8) assay. […] IC50 values for proliferation curves were calculated using a 4-parameter logistic nonlinear regression model with SoftMax Pro Software (Molecular Devices, San Jose, USA).

MKN45 = assay: Cell proliferation assay; assay type: cell-based; conditions: Homo sapiens, MKN-45; Fig. 2G
Procedure: as §2

NCI-H1975 = assay: Cell proliferation assay; assay type: cell-based; conditions: Homo sapiens, Fig. 2G
Procedure: as §2

NCI-H460 = assay: Cell proliferation assay; assay type: cell-based; conditions: Homo sapiens, Fig. 2G
Procedure: as §2

NCI-H520 = assay: Cell proliferation assay; assay type: cell-based; conditions: Homo sapiens, Fig. 2G
Procedure: as §2

[2] = system: ERK phosphorylation in NCI-H1581 tumors; assay: Pharmacodynamic study, intratumoral p-ERK; conditions: 6 h after single oral dose of 12.5, 25 or 50 mg/kg

T1 sequence (P11362 22-822): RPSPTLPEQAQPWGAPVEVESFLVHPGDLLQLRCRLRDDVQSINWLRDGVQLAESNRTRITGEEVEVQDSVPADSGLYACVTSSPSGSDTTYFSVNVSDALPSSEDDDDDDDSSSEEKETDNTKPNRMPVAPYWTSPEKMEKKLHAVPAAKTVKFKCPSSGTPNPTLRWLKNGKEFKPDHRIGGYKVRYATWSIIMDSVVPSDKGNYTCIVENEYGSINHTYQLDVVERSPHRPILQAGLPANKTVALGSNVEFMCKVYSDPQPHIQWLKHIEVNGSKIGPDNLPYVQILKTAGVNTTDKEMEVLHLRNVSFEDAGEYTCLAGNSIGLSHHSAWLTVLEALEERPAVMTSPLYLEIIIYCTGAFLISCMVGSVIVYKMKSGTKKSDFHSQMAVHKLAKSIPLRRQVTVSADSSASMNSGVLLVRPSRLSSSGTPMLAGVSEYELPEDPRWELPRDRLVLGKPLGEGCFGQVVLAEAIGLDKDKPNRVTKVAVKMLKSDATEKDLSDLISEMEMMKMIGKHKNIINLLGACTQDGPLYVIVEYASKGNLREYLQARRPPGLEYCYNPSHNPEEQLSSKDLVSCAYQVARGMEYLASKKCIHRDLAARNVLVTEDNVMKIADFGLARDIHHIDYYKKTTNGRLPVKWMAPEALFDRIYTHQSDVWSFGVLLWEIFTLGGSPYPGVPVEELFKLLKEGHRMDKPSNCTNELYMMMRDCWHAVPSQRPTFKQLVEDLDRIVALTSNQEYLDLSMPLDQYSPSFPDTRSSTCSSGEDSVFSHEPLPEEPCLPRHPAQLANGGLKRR

For `COc1cc(OC)c(Cl)c(-c2ccc3c(NC(=O)c4ccc(N5CCNC(C)(C)C5)cc4)n[nH]c3n2)c1Cl` [3D185], the mode of inhibition (FGFR1; ATP competition assay) was “ATP-competitive inhibitor”, the “selectivity for FGFR over PDGFRα, PDGFRβ, VEGFR1 and VEGFR3” value (FGFR1; kinase assays) was greater than 2000 fold and the IC50 (FGFR1; mean ± SD) was 0.5 nM. For the same compound, the IC50 (PDGFRα) was greater than 1000 nM, the IC50 (PDGFRβ) was greater than 1000 nM and the IC50 (VEGFR1) was greater than 1000 nM. The IC50 (VEGFR3) was greater than 1000 nM, the IC50 (FGFR3) was 3.6 nM and the inhibition at 0.01 µM (BTK(R28H)(h); 10 nM) was -3%. For the same compound, the inhibition at 0.1 µM (BTK(R28H)(h); 100 nM) was -2%, the inhibition at 1 µM (BTK(R28H)(h); 1000 nM) was -4% and the inhibition at 0.01 µM (IRR(h); 10 nM) was -5%. It also gave an inhibition at 0.1 µM (IRR(h); 100 nM) of 5%, an inhibition at 1 µM (IRR(h); 1000 nM) of 1% and an inhibition at 0.01 µM (Mnk2(h); 10 nM) of -2%. The inhibition at 0.1 µM (Mnk2(h); 100 nM) was -10%, the inhibition at 1 µM (Mnk2(h); 1000 nM) was -9% and the inhibition at 0.01 µM (PAK1(h); 10 nM) was 5%. For the same compound, the inhibition at 0.1 µM (PAK1(h); 100 nM) was 6%, the inhibition at 1 µM (PAK1(h); 1000 nM) was 2% and the inhibition at 0.01 µM (PDHK4(h); 10 nM) was -2%. It also gave an inhibition at 0.1 µM (PDHK4(h); 100 nM) of -2%, an inhibition at 1 µM (PDHK4(h); 1000 nM) of 0% and an inhibition at 0.01 µM (PKCι(h); 10 nM) of -1%. For the same compound, the inhibition at 0.1 µM (PKCι(h); 100 nM) was 0%, the inhibition at 1 µM (PKCι(h); 1000 nM) was -1% and the inhibition at 0.01 µM (SIK2(h); 10 nM) was 7%. It also gave an inhibition at 0.1 µM (SIK2(h); 100 nM) of 5%, an inhibition at 1 µM (SIK2(h); 1000 nM) of 4% and an inhibition at 0.01 µM (STK25(h); 10 nM) of 7%. For the same compound, the inhibition at 0.1 µM (STK25(h); 100 nM) was 22%, the inhibition at 1 µM (STK25(h); 1000 nM) was 57% and the inhibition at 0.01 µM (STK32B(h); 10 nM) was 1%. It also gave an inhibition at 0.1 µM (STK32B(h); 100 nM) of 1%, an inhibition at 1 µM (STK32B(h); 1000 nM) of 0% and an IC50 (VEGFR2 (KDR); mean ± SD) of 382 nM. The “selectivity for FGFR1 over KDR” value (VEGFR2 (KDR); molecular kinase assays) was “over 760 fold”, the IC50 [1] was greater than 1000 nM and the IC50 (MKN45) was greater than 1000 nM. For the same compound, the IC50 (NCI-H1975) was greater than 1000 nM, the IC50 (NCI-H460) was greater than 1000 nM and the IC50 (NCI-H520) was greater than 1000 nM. For the same compound, the “intratumoral ERK phosphorylation” value [2] was “nearly complete inhibition of ERK phosphorylation”.
